# Assays:
# [1] = compound: C1CN(CCC1(C(=O)N[C@@H](CCO)C2=CC=C(C=C2)Cl)N)C3=NC=NC4=C3C=CN4 [Capivasertib]
# How it was run: (§1)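 Cancer cell lines were plated in 1536-well plates in 7.5 μl of DMEM/F12 or RPMI with 10% FBS and kept 24 hours at 37°C and 5% CO2 before 72 hours of dosing, with final DMSO typically 0.2%. CellTiter-Glo 2.0 luminescence measured viability, scaled between blank-well and DMSO-well means. Dose responses were fitted to a two-parameter logistic curve with a non-linear mixed effects model. This fit gives the single-agent IC50.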
# [2] = compound: C=CCn1c(=O)c2cnc(Nc3ccc(N4CCN(C)CC4)cc3)nc2n1-c1cccc(C(C)(C)O)n1 [AZD1775]; conditions: max 3 µM
# How it was run: as §1
# [3] = compound: CC(=O)Nc1cccc(-n2c(=O)n(C3CC3)c(=O)c3c(Nc4ccc(I)cc4F)n(C)c(=O)c(C)c32)c1 [Trametinib]; conditions: max 1 µM
# How it was run: as §1
# [4] = compound: CC(=O)c1c(C)c2cnc(Nc3ccc(N4CCNCC4)cn3)nc2n(C2CCCC2)c1=O [Palbociclib]; conditions: max 10 µM
# How it was run: as §1
# [5] = compound: CC(C)n1c(=O)n(C)c2cnc3cc(F)c(-c4ccc(OCCCN5CCCCC5)nc4)cc3c21 [AZD1390]; conditions: max 0.3 µM
# How it was run: as §1
# [6] = compound: CC1(C)CCC(CN2CCN(c3ccc(C(=O)NS(=O)(=O)c4ccc(NCC5CCOCC5)c([N+](=O)[O-])c4)c(Oc4cnc5[nH]ccc5c4)c3)CC2)=C(c2ccc(Cl)cc2)C1 [Venetoclax]; conditions: max 1 µM
# How it was run: as §1
# [7] = compound: CC1=C(C(=CC=C1)Cl)NC(=O)C2=CN=C(S2)NC3=CC(=NC(=N3)C)N4CCN(CC4)CCO [Dasatinib]; conditions: max 2 µM
# How it was run: as §1
# [8] = compound: CC1=CN2[C@@H](C1)C=NC3=CC(=C(C=C3C2=O)OC)OCCCCCOC4=C(C=C5C(=C4)N=C[C@@H]6CC(=CN6C5=O)C)OC [SG3199]; conditions: max 0.001 µM
# How it was run: as §1
# [9] = compound: CCN(CCO)CCCOc1ccc2c(Nc3cc(CC(=O)Nc4cccc(F)c4)[nH]n3)ncnc2c1 [AZD2811]; conditions: max 1 µM
# How it was run: as §1
# [10] = compound: CCc1c2c(nc3ccc(O)cc13)-c1cc3c(c(=O)n1C2)COC(=O)[C@]3(O)CC [SN-38]; conditions: max 0.3 µM
# How it was run: as §1
# [11] = compound: CN(C)CCCOc1ccc(-c2ccc3ncc4c(c3c2)n(C2CCOCC2)c(=O)n4C)cn1 [AZD0156]; conditions: max 3 µM
# How it was run: as §1
# [12] = compound: CN(CC[C@H](CSC1=CC=CC=C1)NC2=C(C=C(C=C2)S(=O)(=O)NC(=O)C3=CC=C(C=C3)N4CCC(CC4)[C@H](C5=CC=CC=C5C6=CC=C(C=C6)Cl)O)S(=O)(=O)C(F)(F)F)CCO [AZD4320]; conditions: max 1 µM
# How it was run: as §1
# [13] = compound: COc1cc(Nc2ncc3c(n2)-c2ccc(Cl)cc2C(c2c(F)cccc2OC)=NC3)ccc1C(=O)O [Alisertib]; conditions: max 10 µM
# How it was run: as §1
# [14] = compound: COc1cc2ncnc(Nc3ccc(F)c(Cl)c3)c2cc1OCCCN1CCOCC1 [Gefitinib]; conditions: max 10 µM
# How it was run: as §1
# [15] = compound: COc1cccc(OCCCN)c1-c1cc(Nc2cnc(C#N)cn2)n[nH]1 [Prexasertib]; conditions: max 1 µM
# How it was run: as §1
# [16] = compound: COc1cccc2c1C(=O)c1c(O)c3c(c(O)c1C2=O)C[C@@](O)(C(=O)CO)C[C@@H]3O[C@H]1C[C@H](N)[C@H](O)[C@H](C)O1 [Doxorubicin]; conditions: max 1 µM
# How it was run: as §1
# [17] = compound: COc1nnc2ccc(N3CCC(c4ccc(OCCN5CCN(C)C(=O)[C@H]5C)cc4)CC3)nn12 [AZD5153]; conditions: max 1 µM
# How it was run: as §1
# [18] = compound: CS(=O)(=O)CCNCc1ccc(-c2ccc3ncnc(Nc4ccc(OCc5cccc(F)c5)c(Cl)c4)c3c2)o1 [Lapatinib]; conditions: max 10 µM
# How it was run: as §1
# [19] = compound: C[C@@H](Nc1cc(F)cc(F)c1)c1cc(C(=O)N(C)C)cc2c(=O)cc(N3CCOCC3)oc12 [AZD8186]; conditions: max 3 µM
# How it was run: as §1
# [20] = compound: C[C@@H](Oc1cc(-c2cnn(C3CCNCC3)c2)cnc1N)c1c(Cl)ccc(F)c1Cl [Crizotinib]; conditions: max 10 µM
# How it was run: as §1
# [21] = compound: C[C@@H](c1ccc2nccn2c1)n1nnc2ncc(-c3cnn(C)c3)nc21 [Savolitinib]; conditions: max 1 µM
# How it was run: as §1
# [22] = compound: C[C@@H]1COCCN1C2=NC(=NC(=C2)C3(CC3)[S@](=N)(=O)C)C4=C5C=CNC5=NC=C4 [AZD6738]; conditions: max 10 µM
# How it was run: as §1
# [23] = compound: Cc1c2c(nn1C)CSCc1cc(n(C)n1)CSc1cc(c3ccccc3c1)OCCCc1c(C(=O)O)n(C)c3c-2c(Cl)ccc13 [AZD5991]; conditions: max 1 µM
# How it was run: as §1
# [24] = compound: Cc1cc2ncnn2cc1Nc1ncc2c(n1)n(C1CCOCC1)c(=O)n2C [AZD7648]; conditions: max 10 µM
# How it was run: as §1
# [25] = compound: Cc1nc(-c2cn3c(n2)-c2ccc(-c4cnn(C(C)(C)C(N)=O)c4)cc2OCC3)n(C(C)C)n1 [Taselisib]; conditions: max 10 µM
# How it was run: as §1
# [26] = compound: Cn1cnc2c(F)c(Nc3ccc(Br)cc3Cl)c(C(=O)NOCCO)cc21 [Selumetinib]
# How it was run: as §1
# [27] = compound: O=C(c1cc(Cc2n[nH]c(=O)c3ccccc23)ccc1F)N1CCN(C(=O)C2CC2)CC1 [Olaparib]; conditions: max 10 µM
# How it was run: as §1
Cell Line,"IC50, cell viability 72 h ([1]; max 10 µM)","IC50, cell viability 72 h [2]","IC50, cell viability 72 h [3]","IC50, cell viability 72 h [4]","IC50, cell viability 72 h [5]","IC50, cell viability 72 h [6]","IC50, cell viability 72 h [7]","IC50, cell viability 72 h [8]","IC50, cell viability 72 h [9]","IC50, cell viability 72 h [10]","IC50, cell viability 72 h [11]","IC50, cell viability 72 h [12]","IC50, cell viability 72 h [13]","IC50, cell viability 72 h [14]","IC50, cell viability 72 h [15]","IC50, cell viability 72 h [16]","IC50, cell viability 72 h [17]","IC50, cell viability 72 h [18]","IC50, cell viability 72 h [19]","IC50, cell viability 72 h [20]","IC50, cell viability 72 h [21]","IC50, cell viability 72 h [22]","IC50, cell viability 72 h [23]","IC50, cell viability 72 h [24]","IC50, cell viability 72 h [25]","IC50, cell viability 72 h ([26]; max 10 µM)","IC50, cell viability 72 h [27]","IC50, cell viability 72 h ([1]; max 3 µM)","IC50, cell viability 72 h ([26]; max 3 µM)"
OE19 (Esophageal Adenocarcinoma),> 10000 nM,> 3000 nM,> 1000 nM,> 10000 nM,> 300 nM,> 1000 nM,> 2000 nM,> 1 nM,390 nM,> 300 nM,> 3000 nM,> 1000 nM,167 nM,1360 nM,105 nM,> 1000 nM,907 nM,287 nM,> 3000 nM,3810 nM,> 1000 nM,4050 nM,> 1000 nM,> 10000 nM,2180 nM,> 10000 nM,> 10000 nM,,
NEC8 (Other Solid Carcinomas),> 10000 nM,558 nM,> 1000 nM,> 10000 nM,> 300 nM,> 1000 nM,> 2000 nM,> 1 nM,> 1000 nM,21.5 nM,> 3000 nM,> 1000 nM,> 10000 nM,> 10000 nM,35.7 nM,595 nM,226 nM,> 10000 nM,> 3000 nM,> 10000 nM,> 1000 nM,5760 nM,> 1000 nM,> 10000 nM,> 10000 nM,> 10000 nM,> 10000 nM,,
TE-1 (Esophageal Squamous Cell Carcinoma),> 10000 nM,2220 nM,> 1000 nM,> 10000 nM,> 300 nM,> 1000 nM,393 nM,> 1 nM,> 1000 nM,157 nM,> 3000 nM,> 1000 nM,6090 nM,> 10000 nM,131 nM,> 1000 nM,> 1000 nM,> 10000 nM,> 3000 nM,> 10000 nM,> 1000 nM,> 10000 nM,> 1000 nM,> 10000 nM,7850 nM,> 10000 nM,> 10000 nM,,
JVM-3 (B-Cell Non-Hodgkin's Lymphoma),,117 nM,270 nM,,,> 1000 nM,,> 1 nM,> 1000 nM,2.05 nM,> 3000 nM,80.9 nM,1600 nM,,7.34 nM,84.3 nM,,,> 3000 nM,,,4320 nM,> 1000 nM,> 10000 nM,1610 nM,,> 10000 nM,> 3000 nM,1980 nM
SU8686 (Pancreatic Carcinoma),> 10000 nM,> 3000 nM,> 1000 nM,> 10000 nM,> 300 nM,> 1000 nM,> 2000 nM,> 1 nM,> 1000 nM,> 300 nM,> 3000 nM,> 1000 nM,> 10000 nM,> 10000 nM,489 nM,> 1000 nM,> 1000 nM,> 10000 nM,> 3000 nM,> 10000 nM,> 1000 nM,> 10000 nM,> 1000 nM,> 10000 nM,> 10000 nM,> 10000 nM,> 10000 nM,,
OVCAR-4 (Ovarian Carcinoma),> 10000 nM,> 3000 nM,> 1000 nM,> 10000 nM,> 300 nM,> 1000 nM,> 2000 nM,> 1 nM,> 1000 nM,> 300 nM,> 3000 nM,> 1000 nM,> 10000 nM,> 10000 nM,57.4 nM,> 1000 nM,> 1000 nM,> 10000 nM,> 3000 nM,> 10000 nM,> 1000 nM,6930 nM,> 1000 nM,> 10000 nM,> 10000 nM,> 10000 nM,> 10000 nM,,
VA-ES-BJ (Other Solid Carcinomas),> 10000 nM,3000 nM,> 1000 nM,> 10000 nM,> 300 nM,> 1000 nM,> 2000 nM,> 1 nM,> 1000 nM,18.8 nM,> 3000 nM,> 1000 nM,4770 nM,> 10000 nM,118 nM,464 nM,> 1000 nM,> 10000 nM,> 3000 nM,> 10000 nM,> 1000 nM,4580 nM,> 1000 nM,> 10000 nM,4500 nM,> 10000 nM,> 10000 nM,,
